{
  "source": "patent US20230091170A1",
  "about": "“ENRICHMENT OF ANTIGEN-SPECIFIC ANTIBODIES FOR ANALYTIC AND THERAPEUTIC USE” (priority 2020, published 2023)",
  "origin": "cited, not measured here",
  "note": "Like-named read-outs stand apart in the source and are kept apart here.",
  "data": [
    {"smiles": "O=C(O)CCCC[C@@H]1SC[C@@H]2NC(=O)N[C@@H]21", "note": "[Biotin]", "values": [
      {"measurement": "Serum concentration of biotin", "setting": "after a single dose of 300 mg biotin", "result": "up to 1160 ng/mL"},
      {"measurement": "Normal circulating concentrations of biotin", "setting": "derived from the diet and normal metabolism", "result": "< 1.2", "unit": "ng/mL"},
      {"measurement": "Serum concentration of biotin", "setting": "within the first hour after ingestion, supplements of 20 mg biotin per day", "result": "up to 355 ng/mL"}
    ]}
  ]
}
